The values that follow come from article PMC11259170, “Small-molecule probe for IBD risk variant GPR65 I231L alters cytokine signaling networks through positive allosteric modulation” (Science Advances, 2024).

The target in series [1] is T1, hGPR4-SmBiT (Homo sapiens, UniProt P46093).
T1 construct: expressed in transfected cells; host or cells: Expi293F (Gibco), transient transfection
Description: Nano-BiT target engagement, LgBiT-mGs recruitment to hGPR4-SmBiT. The format is cell-based. Conditions: 10 μM. The procedure:
Target engagement was measured in Expi293F (Gibco, 100044202) cells using the Nano-Glo Live Cell Assay System (Promega, N2011). Nano-BiT plasmids were cloned from GPR65-, GPR4-, and GPR68-Tango plasmids. GPR65-Tango (Addgene plasmid # 66370; http://n2t.net/addgene:66370; RRID:Addgene_66370), GPR4-Tango (Addgene plasmid # 66358; http://n2t.net/addgene:66358; RRID:Addgene_66358), and GPR68-Tango (Addgene plasmid # 66371; http://n2t.net/addgene:66371; RRID:Addgene_66371) were gifts from Bryan Roth. Expi293F cells were transfected 1 day before kinetics with 500 ng of each plasmid using ExpiFectamine 293 Transfection Kit (Gibco, A14525). After 24 hours, cells were collected, washed, and resuspended in room temperature 0.1% PBS-BSA, adjusted to pH 7.4 using 1 M NaOH. Cells were transferred to white opaque 96-well microplates (100 μl per well, PerkinElmer, 6005290), followed by addition of the Nano-Glo Live Cell Reagent (25 μl per well). Baseline luminescence was measured for 10 cycles (1 cycle = 90 s) before adding compounds. All luminescence measurements were made on BMG Labtech PHERAstar FSX. Data analysis was performed using GraphPad Prism.

Series [2] in a line: Solubility in phosphate buffer. Conditions: read-out: solubility in phosphate buffer. The format is physicochemical.
A short description of series [3]: Lipophilicity (logD). The format is physicochemical.
For series [4], the target named is T2, hGPR65 (Homo sapiens, UniProt Q8IYL9).
T2 construct: expressed in transfected cells; host or cells: HeLa (ATCC CCL-2), lentiviral transduction, pLX317
T2 sequence (Q8IYL9 whole entry): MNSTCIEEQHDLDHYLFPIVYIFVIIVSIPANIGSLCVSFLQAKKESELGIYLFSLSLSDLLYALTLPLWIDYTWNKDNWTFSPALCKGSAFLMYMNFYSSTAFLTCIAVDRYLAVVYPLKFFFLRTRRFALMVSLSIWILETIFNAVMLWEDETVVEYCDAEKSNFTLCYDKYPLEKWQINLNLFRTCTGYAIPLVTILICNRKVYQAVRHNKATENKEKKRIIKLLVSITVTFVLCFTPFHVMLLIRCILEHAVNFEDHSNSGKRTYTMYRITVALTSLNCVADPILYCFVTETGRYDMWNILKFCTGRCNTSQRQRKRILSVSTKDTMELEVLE
Description: cAMP detection (Lance Ultra), GPR65 KO HeLa reconstituted with hGPR65; 21K screen dose confirmation. The format is cell-based. Conditions: HeLa GPR65 KO + hGPR65, pH 7.1, 30 min, normalized to DMSO and 100 μM forskolin; read-out: WT EC50.

The target in series [5] is T3, mGPR65 (Mus musculus, UniProt Q61038).
T3 construct: expressed in transfected cells; host or cells: HeLa (ATCC CCL-2), lentiviral transduction, pLX317
T3 sequence (Q61038 whole entry): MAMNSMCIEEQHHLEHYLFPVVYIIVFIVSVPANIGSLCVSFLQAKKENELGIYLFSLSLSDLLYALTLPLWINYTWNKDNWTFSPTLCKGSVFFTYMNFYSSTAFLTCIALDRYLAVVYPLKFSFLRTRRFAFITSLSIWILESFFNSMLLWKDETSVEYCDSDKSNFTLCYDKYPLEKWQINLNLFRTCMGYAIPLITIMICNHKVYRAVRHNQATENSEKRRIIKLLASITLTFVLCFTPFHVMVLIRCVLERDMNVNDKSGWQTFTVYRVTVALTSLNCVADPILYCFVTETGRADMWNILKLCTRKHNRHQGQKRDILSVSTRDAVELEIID
Put plainly: cAMP detection, GPR65 KO HeLa reconstituted with mGPR65. The format is cell-based. Conditions: 0 to 50 μM, pH 7.2. The procedure:
The Lance Ultra cAMP Kit (PerkinElmer, TRF0264) was used for cAMP detection, and included the following reagents: ULight anti-cAMP antibody, Eu-cAMP tracer, 7.5% BSA Stabilizer solution, and cAMP detection buffer. Stimulation buffer was prepared as described by the kit manufacturer as follows: Hanks buffered saline solution (HBSS, Life Technologies, 14025-126) containing 0.5 mM IBMX (3-isobutyl-1-methylxanthine, Sigma-Aldrich, I7018) and buffered with 1 M Hepes (15630-080). […] HeLa cells were lifted using Versene and then suspended at 2.5 × 10^5 cells/ml in stimulation buffer. Cells were then plated at 20 μl per well (5000 cells per well) in white, opaque OptiPlate 384-well MicroPlates (PerkinElmer, 6007299) using a Thermo Fisher Scientific Combi liquid dispenser. […] Eu-cAMP tracer and Förster resonance energy transfer (FRET) emissions were then read using a PerkinElmer EnVision Multimode plate reader (ENVISION21040010), exciting each well at 320 nm [UV2 (TRF) 320 filter] and reading emissions at 615 nm (Europium 615 filter) and 665 nm (APC665 filter). […]

The test system of series [6] is murine macrophages and T cells. On the set-up: method as in PMID 22445881. Conditions: murine macrophages and T cells ref 33; cited from earlier work.

Molecules are shown by their SMILES. Converted amounts (≈) assume the structure as drawn. Where two headings read alike, the source gives them in different places.

T1 sequence (P46093 whole entry): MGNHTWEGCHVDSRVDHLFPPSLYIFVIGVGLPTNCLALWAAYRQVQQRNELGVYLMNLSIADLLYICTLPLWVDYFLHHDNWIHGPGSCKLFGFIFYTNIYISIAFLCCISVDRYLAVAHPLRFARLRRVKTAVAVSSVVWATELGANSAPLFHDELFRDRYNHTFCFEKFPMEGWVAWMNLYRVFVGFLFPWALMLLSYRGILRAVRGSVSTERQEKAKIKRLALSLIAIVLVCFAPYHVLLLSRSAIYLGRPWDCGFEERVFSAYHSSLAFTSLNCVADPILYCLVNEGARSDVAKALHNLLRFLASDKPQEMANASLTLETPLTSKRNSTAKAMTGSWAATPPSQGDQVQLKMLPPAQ

As to `Cc1ccc(NC(=O)c2cnn3c(O)cc(-c4ccc(COC(C)C)cc4)nc23)nc1` [BRD5075, O=C(NC1=NC=C(C)C=C1)C2=C3N(N=C2)C(O)=CC(C4=CC=C(COC(C)C)C=C4)=N3], in series [1], the “response in cells expressing hGPR4-SmBiT” value is listed as “failing to elicit responses”. For the same molecule, the solubility – broadly, the concentration that dissolves in the medium under given conditions – in series [2] is 116 µM (≈ 48.4 µg/mL). The logD (as a rule, lipophilicity at a set pH, counting ionised and neutral species) in series [3] (pH 7.4, pH7.4, read-out: LogD (pH7.4)) was determined as 3.57; in series [3] (read-out: lipophilicity (logD)), 3.57.
For the molecule `CN1N=C(SCc2ccc(Cl)cc2Cl)Sc2c1cnn(C)c2=O` [BTB09089, reference compound], the EC50 (commonly the concentration that produces a half-maximal response) in series [4] came out at 6 µM. For the same molecule, the “cAMP response, BTB09089 compared with BRD2813” value in series [5] is on record as “more effective”. In series [6], the “cAMP production through the Gαs-coupled pathway” value was “increased cAMP production”.
